# Results taken from patent publication US20210268450A1, “COMPOSITION USEFUL FOR PRODUCTION OF ACIDIC GAS SEPARATION MEMBRANE” (SUMITOMO CHEMICAL COMPANY, LIMITED, priority 2018, published 2021).
# Experiment: acid dissociation constant in a 25° C. aqueous solution (titration method)
# Format: physicochemical
# Conditions: for acid dissociation constant in a 25° C. aqueous solution 1: first constant; for acid dissociation constant 2: second constant
# Excerpt: This acid dissociation constant is a value as measured by a known titration method based on the definition of Bronsted (Shinpan Bunseki Kagaku Jikken, Nihon Bunseki Kagakukai Hokkaido Shibu ed., pp. 219 to 237).
SMILES,acid dissociation constant in a 25° C. aqueous solution 1,acid dissociation constant 2,acid dissociation constant 3 (third constant),acid dissociation constant in a 25° C. aqueous solution (single constant)
"Oc1ccccc1O [Weakly acidic organic compound 6, catechol]",9.1,12.1,–,–
"CS(=O)(=O)Nc1ccccc1 [Weakly acidic organic compound 4, N-phenylmethanesulfonamide]",–,–,–,12.9

# Other lines, results leading:
acid dissociation constant in a 25° C. aqueous solution 1,acid dissociation constant 2,acid dissociation constant 3 (third constant),acid dissociation constant in a 25° C. aqueous solution (single constant),SMILES
8.0,9.2,14.0,–,"Oc1cc(O)cc(O)c1 [Weakly acidic organic compound 2, phloroglucinol]"
9.0,11.6,–,–,"Oc1cccc(O)c1O [Weakly acidic organic compound 5, pyrogallol]"
9.3,9.8,–,–,"Oc1cccc(O)c1 [Weakly acidic organic compound 1, resorcinol]"
